# Results reported in patent publication US5306721A (priority 1990, dated 1994).
# Counter-ions that a name gives are not always drawn. Like-named read-outs stand apart in the source and are kept apart here.
# How the values were obtained:
# [1] = test system: DNP-specific serum antibodies; assay: Takatsy test for DNP-specific serum antibodies (humoral immune response); assay type: in vivo, guinea pig; conditions: difference to control group; blood taken 14 days after DNFB
# Procedure: After immunization with DNFB, dinitrophenyl (DNP)-specific humoral antibodies, which preferentially belong to the IgG1 substance class, are developed in guinea pigs. Blood was taken from the experimental animals by puncture of the heart fourteen days after the primary epicutaneous application of DNFB. The antibody (AB) concentration was determined according to the method described by G. Takatsy: A New Method for the Preparation of Serial Dilutions in a Quick and Accurate Way, (Kiserletes Orvostudomany, Hungary, Vol. 2, 1950, pp. 263-396). TNP-laden sheep erythrocytes were used as indicator cells coupled according to Rittenberg and Pratt (M. B. Rittenberg, and K. L. Pratt, Antitrinitrophenyl Plaque Assay. Primary Response of BALB/c Mice to Soluble and Particulate Immunogen, Proc. Soc. Exp. Biol. Med., Vol. 132, 1969, pp. 575-579).
# (§1) The degree of sensitization in percent and the concentration of serum antibodies expressed as antibody titer difference is compared below to the respective control group (screening values).
# (§2) A contact dermatitis value of 120 or more, i.e. corresponding to an at least 20% increase compared to the control, or of less than 80 are taken as proof of a stimulatory or suppressor effect, respectively. Antibody values of >+1 or <-1 illustrate the stimulatory or suppressor effect, respectively, of the substances on the humoral response.
# [2] = test system: effector T lymphocyte activity (contact hypersensitivity); assay: Percutaneous test for detecting delayed contact hypersensitivity (contact dermatitis) after DNFB immunization; assay type: in vivo, guinea pig; conditions: Cavia porcellus, Control: 100, oral 2 mg/kg daily
# Text: 1.1 Percutaneous test for detecting contact hypersensitivity
# The epicutaneous application of dinitrofluorobenzene (DNFB) led to the development of a delayed hypersensitivity in guinea pigs and mice, an immune status, which is linked to the clonal reproduction of antitrinitrophenyl (TNP)-specific T lymphocytes (TDTH -ly). If, after a latency period of at least 5 days, there is a renewed application of DNFB, lymphokines are released through the reaction with the TDTH -ly of this region of the skin and thus lead to a locally limited inflammatory reaction.
# Seven days after the immunization with 1% DNFB, the sides of the experimental animals were depilated and tested by the application of one drop each of the 0.5%, 0.1%, 0.05, 0.025% and 0.01% DNFB solution. […] The test results are obtained from the severity and number of the positive skin reactions, and the stimulation index (SI) is obtained from the comparison of test animals and control animals.
# The test substance is orally administered. A daily dose of 2 mg/kg of body weight, as an aqueous suspension, was administered daily by a stomach tube. Duration of treatment: 1 day+1 (one day after the immunization), up to +6. The control animals received only the lactose content of the composition.
# as §1, §2
# [3] = test system: SE-specific rosette-forming cells (RFC); assay: Rosette test (SE-specific rosettes); assay type: in vivo, mouse (inbred CBA strain); conditions: oral administration
# Procedure: The testing of immunostimulatory effects was also conducted on the mouse (inbred CBA strain) by detection through the plaque test for detecting SE (sheep erythrocyte) -specific immunoglobulin M (IgM) and immunoglobulin G (IgG) PFC (plaque forming cells), and by the rosette test.
# 2.2 Rosette Test (SE-specific rosettes)
# According to Burnet's Theory, lymphocytes carry immunoglobulin receptors on their surface. These receptors are directed against a particular antigen and are detectable by a reaction with the specific antigen. The determination of the number of rosette-forming cells (RFC) can serve as a measure of the strength of an incipient immune reaction and consequently also reproduce the effects of a suppression or stimulation of cell-proliferative processes.
# Three days after the intravenous immunization with 2×10^5 SE in 0.2 ml physiological salt solution, the experimental animals were killed by hyperdistention, the spleen was removed and, after addition of Parker medium at pH 7.4, rubbed through Muller gauze. The work to recover the cell suspension was carried out in an ice-cooled water bath from about 0° C. to about 4° C. The determination of the cell density was carried out in a Neubauer counting chamber. Next, the cell count was adjusted to 1×10^7 nuclei-containing cell (NCC) per ml of medium, a count that was kept constant for all experimental formulations. Of this spleen cell suspension (1×10^7 NCC/ml), 0.9 ml were then mixed with 0.1 ml of a 5% washed SE suspension and incubated for 24 hours at 4° C. An NCC, which was surrounded by at least 4 erythrocytes and was identifiable, was rated as a rosette.
# Herpes simplex type 1 = assay: Grading replication test on RH cell line, herpes simplex type 1; assay type: cell-based, herpes simplex virus; conditions: Human alphaherpesvirus 1, RH cells
# Influenza A/WSN [4] = assay: Grading replication test on RH cell line, influenza; assay type: cell-based, influenza virus; conditions: RH cells
# Influenza A/WSN [5] = assay: Grading replication test on chicken embryo fibroblasts, influenza; assay type: cell-based; conditions: Influenza A virus, Fibroblast
# Vaccinia Lister [6] = assay: microbe, parasite or virus in culture; assay type: cell-based; conditions: Orthopoxvirus vaccinia, Fibroblast, in Gallus gallus
# Vaccinia Lister [7] = assay: microbe, parasite or virus in culture; assay type: cell-based; conditions: Orthopoxvirus vaccinia
# [8] = levamisole after oral administration to man; inosine benzoate about 50 mg/kg/day; cited from earlier work
# immune system = conditions: cited from earlier work
# [9] = 24 h, day +1 to +6, read-out: Contact dermatitis, 24-hour reaction
# [10] = 48 h, day +1 to +6, read-out: Contact dermatitis, 48-hour reaction
# [11] = 62.5 μmoles/l, read-out: Inhibition of virus yield
# [12] = 62.5 μmoles/l, read-out: Lowering the virus yield
# [13] = 125 μmoles/l, read-out: Inhibition of virus yield
# [14] = 125 μmoles/l, read-out: Lowering the virus yield
# [15] = 250 μmoles/l, read-out: Inhibition of virus yield
# [16] = 250 μmoles/l, read-out: Lowering the virus yield
# [17] = read-out: Inhibition of virus yield
# [18] = read-out: Lowering the virus yield
smiles,measurement,setting,value
"Cc1ccc2[nH]c(=O)n(CCCS)c(=O)c2c1 [Example 12, 6-methyl-3-(3-mercapto-propyl)-quinazoline-2,4(1H,3H)-dione]",DNP-specific antibodies (antibody titer difference),[1],+0.3
same,response vs control in vivo at 2 mg/kg,[2]; [9],120%
same,response vs control in vivo at 2 mg/kg,[2]; [10],130%
"COc1cc2[nH]c(=O)n(CCS)c(=O)c2cc1OC [Example 3, 3-(2-mercapto-ethyl)-6,7-dimethoxy-quinazoline-2,4(1H,3H)-dione]",DNP-specific antibodies (antibody titer difference),[1],+1.0
same,response vs control in vivo at 2 mg/kg,[2]; [9],100%
"COc1cc2[nH]c(=O)n(CCCS)c(=O)c2cc1OC [Example 2, 3-(3-mercapto-prop-1-yl)-6,7-dimethoxy-quinazoline-2,4(1H,3H)-dione]",production of SE-specific rosette-forming cells,[3],significant production of SE-specific rosette-forming cells
same,inhibition at 31.25 µM,"Herpes simplex type 1; 31.25 μmoles/l, read-out: Inhibition of virus yield",100%
same,log reduction at 31.25 µM,"Herpes simplex type 1; 31.25 μmoles/l, read-out: Lowering the virus yield",3.67
same,inhibition at 62.5 µM,Herpes simplex type 1; [11],> 100%
same,log reduction at 62.5 µM,Herpes simplex type 1; [12],5
same,inhibition at 125 µM,Herpes simplex type 1; [13],> 100%
same,log reduction at 125 µM,Herpes simplex type 1; [14],6.5
same,inhibition at 250 µM,Herpes simplex type 1; [15],> 100%
same,log reduction at 250 µM,Herpes simplex type 1; [16],6.5
same,Inhibition of virus yield,"Influenza A/WSN [4]; 62.5 μmoles/l, n.s. = not significant",n.s.
same,log reduction at 31.25 µM,"Influenza A/WSN [4]; Influenza A virus, WSN, 31.25 μmoles/l, read-out: Lowering the virus yield",0
same,log reduction at 62.5 µM,"Influenza A/WSN [4]; Influenza A virus, WSN, 62.5 μmoles/l, read-out: Lowering the virus yield",0.5
same,inhibition at 125 µM,"Influenza A/WSN [4]; Influenza A virus, WSN, 125 μmoles/l, read-out: Inhibition of virus yield",99%
same,log reduction at 125 µM,"Influenza A/WSN [4]; Influenza A virus, WSN, 125 μmoles/l, read-out: Lowering the virus yield",2
same,inhibition at 250 µM,"Influenza A/WSN [4]; Influenza A virus, WSN, 250 μmoles/l, read-out: Inhibition of virus yield",100%
same,log reduction at 250 µM,"Influenza A/WSN [4]; Influenza A virus, WSN, 250 μmoles/l, read-out: Lowering the virus yield",6.17
same,inhibition at 62.5 µM,Influenza A/WSN [5]; [11],99%
same,log reduction at 62.5 µM,Influenza A/WSN [5]; [12],2
same,inhibition at 125 µM,Influenza A/WSN [5]; [13],> 100%
same,log reduction at 125 µM,Influenza A/WSN [5]; [14],5
same,inhibition at 250 µM,Influenza A/WSN [5]; [15],> 100%
same,log reduction at 250 µM,Influenza A/WSN [5]; [16],5
same,response vs control in vivo at 2 mg/kg,[2]; [9],180%
same,inhibition at 31.25 µM,Vaccinia Lister [6]; [17],99.9%
same,inhibition at 62.5 µM,Vaccinia Lister [6]; [17],99.9%
same,inhibition at 125 µM,Vaccinia Lister [6]; [17],> 100%
same,inhibition at 250 µM,Vaccinia Lister [6]; [17],> 100%
same,log reduction at 31.25 µM,Vaccinia Lister [6]; [18],3
same,log reduction at 62.5 µM,Vaccinia Lister [6]; [18],3.5
same,log reduction at 125 µM,Vaccinia Lister [6]; [18],5
same,log reduction at 250 µM,Vaccinia Lister [6]; [18],5
same,inhibition at 31.25 µM,Vaccinia Lister [7]; [17],99.8%
same,inhibition at 62.5 µM,Vaccinia Lister [7]; [17],> 100%
same,inhibition at 125 µM,Vaccinia Lister [7]; [17],> 100%
same,inhibition at 250 µM,Vaccinia Lister [7]; [17],> 100%
same,log reduction at 31.25 µM,Vaccinia Lister [7]; [18],2.84
same,log reduction at 62.5 µM,Vaccinia Lister [7]; [18],5
same,log reduction at 125 µM,Vaccinia Lister [7]; [18],5
same,log reduction at 250 µM,Vaccinia Lister [7]; [18],5
"COc1cc2[nH]c(=O)n(CC(C)S)c(=O)c2cc1OC (centres unmarked) [Example 14e, 6,7-Dimethoxy-3-(2-mercapto-propyl)-quinazoline-2,4(1H,3H)-dione]",production of SE-specific rosette-forming cells,[3],significant production of SE-specific rosette-forming cells
same,response vs control in vivo at 2 mg/kg,[2]; [9],100%
"O=c1[nH]c2ccc(Cl)cc2c(=O)n1CCCS [Example 8, 6-chloro-3-(3-mercapto-propyl)-quinazoline-2,4(1H,3H)-dione]",response vs control in vivo at 2 mg/kg,[2]; [9],100%
same,response vs control in vivo at 2 mg/kg,[2]; [10],115%
"O=c1[nH]c2ccc(Cl)cc2c(=O)n1CCS [Example 13, 6-chloro-3-(2-mercapto-ethyl)-quinazoline-2,4(1H,3H)-dione]",response vs control in vivo at 2 mg/kg,[2]; [9],120%
same,response vs control in vivo at 2 mg/kg,[2]; [10],130%
"O=c1[nH]c2ccc(Br)cc2c(=O)n1CCCS [Example 14b, 6-Bromo-3-(3-mercapto-propyl)-quinazoline-2,4(1H,3H)-dione]",DNP-specific antibodies (antibody titer difference),[1],+2.2
same,response vs control in vivo at 2 mg/kg,[2]; [9],105%
same,response vs control in vivo at 2 mg/kg,[2]; [10],100%
O=C(OC[C@H]1O[C@@H](n2cnc3c(O)ncnc32)[C@H](O)[C@@H]1O)c1ccccc1 [inosine benzoate],side effects,[8],"vomiting, hyperuricemia and an increase in hematocrits"
same,immunological effect,immune system,primarily an immunostimulating effect
"O=c1[nH]c2ccc(F)cc2c(=O)n1CCS [Example 14c, 6-Fluoro-3-(2-mercapto-ethyl)-quinazoline-2,4(1H,3H)-dione]",response vs control in vivo at 2 mg/kg,[2]; [9],90%
same,response vs control in vivo at 2 mg/kg,[2]; [10],105%
"O=c1[nH]c2ccc(Br)cc2c(=O)n1CCS [Example 5, 6-bromo-3-(2-mercaptoethyl)-quinazoline-2,4(1H,3H)-dione]",DNP-specific antibodies (antibody titer difference),[1],-0.6
same,response vs control in vivo at 2 mg/kg,[2]; [9],150%
same,response vs control in vivo at 2 mg/kg,[2]; [10],120%
"CC(S)Cn1c(=O)[nH]c2ccccc2c1=O (centres unmarked) [Example 7, 3-(2-mercapto-propyl)-quinazoline-2,4(1H,3H)-dione]",DNP-specific antibodies (antibody titer difference),[1],+1.8
same,response vs control in vivo at 2 mg/kg,[2]; [9],230%
c1ccc([C@H]2CN3CCSC3=N2)cc1 [levamisole hydrochloride],side effects,[8],"vomiting, nausea, leucopenia, and agranulocytosis"
same,immunological effect,immune system,predominantly immunorestorative effect
"O=c1[nH]c2ccccc2c(=O)n1CCCS [Example 6, 3-(3-Mercapto-propyl)-quinazoline-2,4(1H,3H)-dione]",DNP-specific antibodies (antibody titer difference),[1],-1.5
same,production of SE-specific rosette-forming cells,[3],significant production of SE-specific rosette-forming cells
same,response vs control in vivo at 2 mg/kg,[2]; [9],70%
same,response vs control in vivo at 2 mg/kg,[2]; [10],40%
CC(C)(N1CC1C#N)N1CC1C(N)=O (centres unmarked) [azimexone],side effects,[8],"headaches, vomiting and a decrease in haemoglobin (Hb) and erythrocytes"
"Cc1ccc2[nH]c(=O)n(CCS)c(=O)c2c1 [Example 14a, 6-Methyl-3-(2-mercapto-ethyl)-quinazoline-2,4(1H,3H)-dione]",DNP-specific antibodies (antibody titer difference),[1],-1.9
same,response vs control in vivo at 2 mg/kg,[2]; [9],60%
same,response vs control in vivo at 2 mg/kg,[2]; [10],60%
"CC(S)Cn1c(=O)[nH]c2ccc(F)cc2c1=O (centres unmarked) [Example 14d, 6-Fluoro-3-(2-mercapto-propyl)-quinazoline-2,4(1H,3H)-dione]",response vs control in vivo at 2 mg/kg,[2]; [9],100%
same,response vs control in vivo at 2 mg/kg,[2]; [10],150%
